Reference: paper PMC7939532 (Oncotarget, 2021)
Values joined by “and” are separate entries in the source; they are usually repeats but may differ in a detail not shown here. Identical values can stand only once. Like-named read-outs stand apart in the source and are kept apart here. Square brackets hold non-standard residues; d marks the D form. Primed or numbered codes have the meaning given here. Ends that are not written are not given here. Peptide text beside a SMILES is read from it. * marks the point of attachment. d1Nal = N[C@H](Cc1cccc2ccccc12)C(=O)O; Palmitoyl = CCCCCCCCCCCCCCCC(=O)*; PEG2′ = not defined here

How the values were obtained:
Ghrelin receptor [1] = target: T1, Ghrelin receptor (Homo sapiens, UniProt Q92847); test: Competitive binding assay with ^125I-His-Ghrelin in COS-7 cells stably transfected with the Ghrelin receptor; parameters: expressed in transfected cells; host or cells: COS-7; settings: for x-fold over Ghrelin: Ki relative to Ghrelin; for x-fold over 2: Ki relative to peptide 2; for Ki: competition with ^125I-His-Ghrelin, read-out: Ki ± SD
T1 sequence (Q92847 whole entry, species assumed): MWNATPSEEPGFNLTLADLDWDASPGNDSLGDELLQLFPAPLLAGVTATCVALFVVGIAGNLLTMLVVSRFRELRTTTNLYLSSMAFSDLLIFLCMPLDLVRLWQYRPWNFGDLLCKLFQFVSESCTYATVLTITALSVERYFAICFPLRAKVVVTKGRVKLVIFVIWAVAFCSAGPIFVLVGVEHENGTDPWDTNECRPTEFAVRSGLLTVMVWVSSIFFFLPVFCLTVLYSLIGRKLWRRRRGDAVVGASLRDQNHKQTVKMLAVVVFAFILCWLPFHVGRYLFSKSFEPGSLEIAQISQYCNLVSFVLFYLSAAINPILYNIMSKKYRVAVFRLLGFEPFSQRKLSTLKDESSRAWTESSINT
Description: Each experiment was performed in triplicates. IC50 values of the binding curves were calculated by nonlinear regression on a sigmoidal dose-response based model by using program GraphPad Prism 6.0. Ki values were calculated by Cheng-Prusoff equation.

Ghrelin receptor [2] = target: T1, Ghrelin receptor; test: Inositol phosphate turnover assay in COS-7 cells transfected with the Ghrelin receptor; settings: for x-fold over No. 2: EC50 relative to peptide 2; for Δeff (%): efficacy, mean ± SEM of |Efficacymax - Efficacymin|
Description: Data were analyzed with GraphPad Prism 6.0 program (GraphPad Software, San Diego, CA, USA). EC50, pEC50 and Emax values were obtained from concentration–response curves. All signal transduction assays were performed in duplicate and repeated at least two times independently.

PC-3 tumors [3] = tested on: PC-3 tumors; parameters: species or system mice; settings: mouse, in vivo
Description: (§1) Anesthetized, spontaneously breathing animals were allowed to stabilize for 10 min after preparation. The animals were positioned on a heated bed to maintain the body temperature at 37°C. The PET studies were carried out with a NanoScanPET/CT (Mediso, Hungary) or a microPET P4® (Siemens preclinical solutions, Knoxville, TN, USA). The activity of the injection solution was measured in a well counter (Isomed 2000, Dresden, Germany) cross-calibrated to the PET scanners. A 10 min transmission scan was recorded during this time for each subject by using a rotating point source of ^57Co (microPET). The transmission scans were used to correct the emission scan for γ-ray attenuation caused by body tissues and supporting structures; it was also used to demarcate the body field for image registration. […] At the end of the experiment, the animals were deeply anesthetized and sacrificed by an intravenous injection of potassium chloride. Acquisition was performed in 3D list mode. Emission data were collected continuously. The list mode data were sorted into sinograms with 32 or 38 frames (15 × 10 s, 5 × 30 s, 5 × 60 s, 4 × 300 s, 3 × 600 s, or 9 × 600 s). The data were decay-, scatter-, and attenuation-corrected. The frames from the microPET were reconstructed by Ordered Subset Expectation Maximization applied to 3D sinograms (OSEM3D) with 14 subsets, 15 OSEM3D iterations, 25 maximum a posteriori (MAP) iterations, and 1.8 mm resolution using the […] algorithm (Siemens Preclinical Solutions, Knoxville, TN, USA). The voxel size was 0.07 by 0.07 by 0.12 cm. The PET images measured with the nanoScanPET/CT were reconstructed using a three-dimensional Ordered Subsets Expectation Maximization (3D-OSEM) algorithm (Tera-Tomo, Mediso Ltd., Hungary) into dynamic frames as described and with a voxel size of 0.05 cm. No correction for partial volume effects was applied. The image volume data were converted to Siemens ECAT7 format for further processing and were then analyzed using the ROVER software (ABX GmbH, Radeberg, Germany). Masks for defining three-dimensional regions of interest (ROI) were set and the ROI's were defined by thresholding and ROI time activity curves (TAC) were derived for the subsequent data analysis. […] The ROIs were so determined that no surrounding tissue was included. The ROI data and TAC were further analyzed using R (R is available as Free Software under the terms of the Free Software Foundation's GNU General Public License in source code form) and especially developed program packages (Jörg van den Hoff, Frank Hofheinz, Helmholtz-Zentrum Dresden-Rossendorf, Dresden, Germany).

DU-145 tumors [4] = tested on: DU-145 tumors; parameters: species or system mice; settings: mouse, in vivo
Description: as §1

[5] = rat, in vivo
Description: Biodistribution in distinct organs and tissues of healthy rats was measured at 5 and 60 min after single intravenous injection of the ^68Ga- or ^64Cu-radiotracers 9b-c, 10b-c, and 15b-c in rats (see ^68Ga-tracers in Figure 3 and ^64Cu-tracers in Figure 4).
The molar activity was approximately 30 GBq × mmol^–1 at the time of injection (Table 3). […] Animals were sacrificed at 5 and 60 min post injection. Blood and the major organs were collected, weighed, and counted in a Wallac WIZARD automatic gamma counter (PerkinElmer, Germany). The radioactivity of the samples was decay-corrected and calibrated by comparing the counts in tissue with the counts in aliquots of the injected radiotracer that had been measured in the gamma counter at the same time. The activity amount in organs that could be completely extracted was expressed as percent of injected dose (% ID). The activity concentrations in tissues were calculated as standardized uptake values [SUV = (activity × mL^–1 tissue)/(injected activity/body weight), mL × g^–1)]. The SUV was used for better comparison within animals of different size and weight and with other species and to compare the biodistribution and the PET data.

[6] = parameters: species or system rats; settings: rat, in vivo
PC-3 tumors [7] = test: Biodistribution of 10c in PC-3 tumor bearing mice with blocking; type: in vivo; settings: one hour after injection
Description: (§2) The tumor mice with xenotransplanted PC-3 or DU-145 tumors were used when the tumors reached 0.54 ± 0.34 g or 0.18 ± 0.09 g (mean ± SD, n = 9), respectively. […] The mice were sacrificed one hour after injection and the organs and tissues were extracted. The activity measurements and calculations were carried out as described for the rat biodistribution experiments.

DU-145 tumors [8] = test: Biodistribution of 10c in DU-145 tumor bearing mice with blocking; type: in vivo; settings: one hour after injection
Description: as §2

[9] = parameters: species or system mice; settings: mouse, in vivo
Description: as §2

[10] = COS-7 cells transfected with the Ghrelin receptor
[11] = inverse agonist potency, COS-7 cells transfected with the Ghrelin receptor
[12] = EC50, inverse agonist potency, COS-7 cells transfected with the Ghrelin receptor
[13] = pEC50 ± SEM, COS-7 cells transfected with the Ghrelin receptor

Row | Molecule | pEC50 ± SEM (Ghrelin receptor [2]; [10]) | x-fold over No. 2 (Ghrelin receptor [2]) | Δeff (%) (Ghrelin receptor [2]) | EC50 (Ghrelin receptor [2]; [11]) [nM] | other results
1 | [^natGa]Ga-NODAGA-KK-(D-1-Nal)-FwLL-NH2 [10a] | 7.5 ± 0.07 | 8 | 98% and 98 ± 4% | 34.7 | x-fold over Ghrelin (Ghrelin receptor [1]): 57; x-fold over 2 (Ghrelin receptor [1]): 6; Ki (Ghrelin receptor [1]): 30.3 ± 7.5 nM
2 | Palm-K[^natGa]Ga-NODAGA-K-(D-1-Nal)-FwLL-NH2 [13a] | 7.5 ± 0.06 | 6 | 92% and 92 ± 3% | 28.7 | –
3 | Palm-KK-(D-1-Nal)-FwLK[^natGa]Ga-NODAGA-NH2 [17a] | 6.2 ± 0.10 | 132 | 85 ± 6% | 592 | –
4 | K(Palm)-K-(D-1-Nal)-FwLK[^natGa]Ga-NODAGA-NH2 [18a] | 6.6 ± 0.10 | 59 | 75 ± 6% | 267 | –
5 | [^natGa]Ga-NODAGA-K(Palm)-K-(D-1-Nal)-FwLL-NH2 [12a] | 7.7 ± 0.06 | 5 | 92% and 92 ± 4% | 20.3 | x-fold over Ghrelin (Ghrelin receptor [1]): 126; x-fold over 2 (Ghrelin receptor [1]): 14; Ki (Ghrelin receptor [1]): 66.9 ± 25.7 nM
6 | K[^natGa]Ga-NODAGA-K-(D-1-Nal)-FwLK(Palm)-NH2 [16a] | 7.9 ± 0.07 | 3 | 90 ± 4% | 13.6 | –
7 | CC(C)C[C@H](NC(=O)[C@H](CC(C)C)NC(=O)[C@@H](Cc1c[nH]c2ccccc12)NC(=O)[C@H](Cc1ccccc1)NC(=O)[C@@H](Cc1cccc2ccccc12)NC(=O)[C@H](CCCCN)NC(=O)[C@@H](N)CCCCN)C(N)=O [compound 4, KK-(D-1-Nal)-FwLL-NH2] (H-KK[d1Nal]F[dW]LL-NH2) | – | – | 63% and 63 ± 2% | – | EC50 (Ghrelin receptor [2]; [12]): 13 nM; EC50 (Ghrelin receptor [2]; [13]): 12.6 nM
8 | PEG2-KK-(D-1-Nal)-FwLL-NH2 [compound 8] | 6.3 ± 0.08 | 111 | 85 ± 3% | 499 | –
9 | [^64Cu]Cu-NODAGA-NH-K-K-(D-1-NaI)-F-w-L-L-NH2 [10c] | – | – | – | – | activity concentration in tumor (PC-3 tumors [3]): 2.02 ± 0.28 SUV; activity concentration in tumor (PC-3 tumors [3]; 1 mg/kg): 0.99 ± 0.05 SUV; activity concentration in tumor (DU-145 tumors [4]): 1.34 ± 0.24 SUV; activity concentration in tumor (DU-145 tumors [4]; 1 mg/kg): 0.68 ± 0.05 SUV; brain uptake [5]: 0.06-0.1 SUV; original compound found in the kidneys [6]: 1%; original compound found in the liver [6]: 14%; original compound found in the urine [6]: 6%; tumor to muscle ratio as percent of control (PC-3 tumors [7]; blocked with 1 mg/kg Ghrelin): 83.4 ± 18.4%; tumor to muscle ratio as percent of control (PC-3 tumors [7]; blocked with 1 mg/kg KKD): 51.2 ± 4.5%; tumor to muscle ratio as percent of control (DU-145 tumors [8]; blocked with 1 mg/kg Ghrelin): 71.0 ± 10.7%; tumor to muscle ratio as percent of control (DU-145 tumors [8]; blocked with 1 mg/kg KKD): 59.7 ± 30.2%; specific tumor uptake relative to the compound of Charron et al. [9]: approximately 10 times; uptake in organs and tissues [9]: > 0.3 SUV
10 | CCCCCCCCCCCCCCCC(=O)NCCCC[C@H](NC(=O)[C@H](CC(C)C)NC(=O)[C@@H](Cc1c[nH]c2ccccc12)NC(=O)[C@H](Cc1ccccc1)NC(=O)[C@@H](Cc1cccc2ccccc12)NC(=O)[C@@H](N)CCCCN)C(N)=O [compound 5] (H-K[d1Nal]F[dW]LK(Palmitoyl)-NH2) | – | – | 85% and 85 ± 2% | – | EC50 (Ghrelin receptor [2]; [12]): 3.5 nM; EC50 (Ghrelin receptor [2]; [13]): 3.16 nM
11 | CC(C)C[C@H](NC(=O)[C@@H](Cc1c[nH]c2ccccc12)NC(=O)[C@H](Cc1ccccc1)NC(=O)[C@@H](Cc1cccc2ccccc12)NC(=O)[C@@H](N)CCCCN)C(=O)N[C@@H](CCCCN)C(N)=O [compound 3, K-(D-1-Nal)-FwLK-NH2] (H-K[d1Nal]F[dW]LK-NH2) | – | – | 42% and 42 ± 1% | – | EC50 (Ghrelin receptor [2]; [12]): 162 nM; EC50 (Ghrelin receptor [2]; [13]): 158 nM
12 | K-(D-1-Nal)-FwLK(PEG2)-NH2 (K[d1Nal]F[dW]LK(PEG2′)-NH2) [compound 7] | 6.8 ± 0.10 | – | – | 166 | –
13 | [^natGa]Ga-NODAGA-KK-(D-1-Nal)-FwLK(Palm)-NH2 [15a] | 7.8 ± 0.05 | 4 | 89 ± 3% | 16.5 | x-fold over Ghrelin (Ghrelin receptor [1]): 21; x-fold over 2 (Ghrelin receptor [1]): 2; Ki (Ghrelin receptor [1]): 11 ± 4.3 nM
14 | CCCCCCCCCCCCCCCC(=O)N[C@@H](CCCCN)C(=O)N[C@@H](CCCCN)C(=O)N[C@H](Cc1cccc2ccccc12)C(=O)N[C@@H](Cc1ccccc1)C(=O)N[C@H](Cc1c[nH]c2ccccc12)C(=O)N[C@@H](CC(C)C)C(=O)N[C@@H](CC(C)C)C(N)=O [compound 6, Palm-KK-(D-1-Nal)-FwLL-NH2] (Palmitoyl-KK[d1Nal]F[dW]LL-NH2) | – | 2 | 86 ± 2% | – | EC50 (Ghrelin receptor [2]; [12]): 11 nM
15 | K-(D-1-Nal)-FwLK(PEG2)-NH2 [compound 7] | – | 37 | 61 ± 3% | – | –
16 | [^natGa]Ga-NODAGA-K-(D-1-Nal)-FwLL-NH2 [9a] | 7.2 ± 0.10 | 14 | 88% and 88 ± 8% | 64.8 | –
17 | PEG2-K[^natGa]Ga-NODAGA-K-(D-1-Nal)-FwLL-NH2 [14a] | – | > 1000 | – | > 1000 | EC50 (Ghrelin receptor [2]; value given in the text): 1800 ± 600 nM
